SMILES strings stand for the structures.

Sequence of HPK1 (Q92918 1-346 limits assumed): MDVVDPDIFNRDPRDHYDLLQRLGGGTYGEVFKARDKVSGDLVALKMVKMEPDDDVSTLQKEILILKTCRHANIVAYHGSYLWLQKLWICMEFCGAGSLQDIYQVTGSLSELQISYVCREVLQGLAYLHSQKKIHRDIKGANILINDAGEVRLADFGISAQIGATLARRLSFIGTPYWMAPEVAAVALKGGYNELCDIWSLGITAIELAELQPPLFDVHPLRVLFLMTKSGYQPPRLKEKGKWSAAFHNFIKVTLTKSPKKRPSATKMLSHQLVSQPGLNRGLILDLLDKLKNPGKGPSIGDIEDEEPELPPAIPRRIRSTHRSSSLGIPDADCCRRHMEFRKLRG

This experiment concerns the target HPK1 (Homo sapiens (Human), UniProt Q92918). The experiment is described as follows: HPK1 Lantha binding assay ("Lanth"). The following applies: binding assays; Morrison Ki fit. An outline of the steps:
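Ki values are from Morrison-equation fitting of 665/615 nm TR-FRET signals, taking enzyme level, tracer level and tracer Kd into account. The assay mix held HPK1 (2 nM), Eu-anti-GST antibody (2 nM) and Tracer222 (15 nM). Incubations were two 1 h steps at 23 °C, on 5-fold serial compound dilutions.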
For the compound `CN(C)C(=O)c1cc(-c2cnc3c(c2)C2(CC2)CN3)ccc1CO` [Compound 18, 5-(1′,2′-dihydrospiro[cyclopropane-1,3′-pyrrolo[2,3-b]pyridin]-5′-yl)-2-(hydroxymethyl)-N,N-dimethylbenzamide], the Ki amounted to 259 nM. Regarding `CN(C(=O)c1c(N)ccc(-c2cnc3c(c2)C2(CC2)CN3)c1F)C(C)(C)CO` [Compound 19, 6-amino-3-(1′,2′-dihydrospiro[cyclopropane-1,3′-pyrrolo[2,3-b]pyridin]-5′-yl)-2-fluoro-N-(1-hydroxy-2-methylpropan-2-yl)-N-methylbenzamide], the affinity, expressed as Ki, was 20.8 nM. `CC1(O)C(=O)Nc2ccc(-c3cnc4c(c3)C3(CC3)CN4)cc21` (centres unmarked) [Compound 20, 5-(1′,2′-dihydrospiro[cyclopropane-1,3′-pyrrolo[2,3-b]pyridin]-5′-yl)-3-hydroxy-3-methylindolin-2-one]: the Ki is 212 nM. The same measure for `CN(C)S(=O)(=O)c1cccc(-c2cnc3c(c2)C2(CC2)CN3)c1F` [Compound 21, 3-(1′,2′-dihydrospiro[cyclopropane-1,3′-pyrrolo[2,3-b]pyridin]-5′-yl)-2-fluoro-N,N-dimethylbenzenesulfonamide]: 297 nM; for `CNS(=O)(=O)c1cccc(-c2cnc3c(c2)C2(CC2)CN3)c1F` [Compound 22, 3-(1′,2′-dihydrospiro[cyclopropane-1,3′-pyrrolo[2,3-b]pyridin]-5′-yl)-2-fluoro-N-methylbenzenesulfonamide]: 869 nM.

In turn, `O=C1Nc2ccc(-c3cnc4c(c3)C3(CC3)CN4)cc2C1(O)C1CC1` (centres unmarked) [Compound 23, 3-cyclopropyl-5-(1′,2′-dihydrospiro[cyclopropane-1,3′-pyrrolo[2,3-b]pyridin]-5′-yl)-3-hydroxyindolin-2-one] returned a Ki of 184 nM. Consider `CN(C)C(=O)c1c(N)ccc(-c2cnc3c(c2)C2(CN3)CC2(C)C)c1F` (centres unmarked) [Compound 24, 6-Amino-3-(2,2-dimethyl-1′,2′-dihydrospiro[cyclopropane-1,3′-pyrrolo[2,3-b]pyridin]-5′-yl)-2-fluoro-N,N-dimethylbenzamide], for which the Ki turned out to be 88.7 nM. Against the preceding compound, the Ki is about 2.1-fold lower. `CN(C)C(=O)c1c(N)ccc(-c2cnc3c(c2)C2(CN3)C3COCC32)c1F` (centres unmarked) [Compound 26, 6-amino-3-(1′,2′-dihydro-3-oxaspiro[bicyclo[3.1.0]hexane-6,3′-pyrrolo[2,3-b]pyridin]-5′-yl)-2-fluoro-N,N-dimethylbenzamide] had a Ki of 446 nM. In turn, `CN(C)C(=O)c1c(N)ccc(-c2cnc3c(c2Cl)C2(CCCC2)CN3)c1F` [Compound 27, 6-Amino-3-(4′-chloro-1′,2′-dihydrospiro[cyclopentane-1,3′-pyrrolo[2,3-b]pyridin]-5′-yl)-2-fluoro-N,N-dimethylbenzamide] registered a Ki of 6.71 nM. The compound `CN(C)C(=O)c1c(N)ccc(-c2cnc3c(c2Cl)C2(CC=CC2)CN3)c1F` [Compound 28, 6-Amino-3-(4′-chloro-1′,2′-dihydrospiro[cyclopentane-1,3′-pyrrolo[2,3-b]pyridin]-3-en-5′-yl)-2-fluoro-N,N-dimethylbenzamide] displayed a Ki of 6.95 nM. In the case of `CN(CC(C)(C)O)C(=O)c1c(N)ccc(-c2cnc3c(c2)C2(CC2)CN3)c1F` [Compound 29, 6-amino-3-(1′,2′-dihydrospiro[cyclopropane-1,3′-pyrrolo[2,3-b]pyridin]-5′-yl)-2-fluoro-N-(2-hydroxy-2-methylpropyl)-N-methylbenzamide], the Ki was 30 nM. `Cc1c(-c2ccc(N)c(C(=O)N(C)C)c2F)cnc2c1C1(CC1)CN2` [Compound 30, 6-Amino-2-fluoro-N,N-dimethyl-3-(4′-methyl-1′,2′-dihydrospiro[cyclopropane-1,3′-pyrrolo[2,3-b]pyridin]-5′-yl)benzamide] gave a Ki of 53.9 nM. This Ki lies about 1.8-fold higher than the previous one.

In turn, `COc1c(-c2ccc(N)c(C(=O)N(C)C)c2F)cnc2c1C1(CC1)CN2` [Compound 31, 6-Amino-2-fluoro-3-(4′-methoxy-1′,2′-dihydrospiro[cyclopropane-1,3′-pyrrolo[2,3-b]pyridin]-5′-yl)-N,N-dimethylbenzamide] yielded an inhibitory constant (Ki) of 28.6 nM.

`Nc1ccc(-c2cnc3c(c2Cl)C2(CC2)CN3)cc1C(=O)N1C2CCC1CC2` [Compound 32, (2-Amino-5-(4′-chloro-1′,2′-dihydrospiro[cyclopropane-1,3′-pyrrolo[2,3-b]pyridin]-5′-yl)phenyl)(7-azabicyclo[2.2.1]heptan-7-yl)methanone] returned a Ki of 12.8 nM. In the case of `Nc1cc(-c2cnc3c(c2Cl)C2(CC2)CN3)cc(-c2ncccc2CO)c1` [Compound 34, (2-(3-Amino-5-(4′-chloro-1′,2′-dihydrospiro[cyclopropane-1,3′-pyrrolo[2,3-b]pyridin]-5′-yl)phenyl)pyridin-3-yl)methanol], the Ki is 6.15 nM. In the case of `CN(CCO)C(=O)c1c(N)ccc(-c2cnc3c(c2Cl)C2(CC2)CN3)c1F` [Compound 36, 6-Amino-3-(4′-chloro-1′,2′-dihydrospiro[cyclopropane-1,3′-pyrrolo[2,3-b]pyridin]-5′-yl)-2-fluoro-N-(2-hydroxyethyl)-N-methylbenzamide], the Ki came to 4.7 nM. The same measure for `CN(C)C(=O)c1c(N)ccc(-c2cnc3c(c2Cl)C2(CCC2)CN3)c1F` [Compound 37, 6-Amino-3-(4′-chloro-1′,2′-dihydrospiro[cyclobutane-1,3′-pyrrolo[2,3-b]pyridin]-5′-yl)-2-fluoro-N,N-dimethylbenzamide]: 2.2 nM; for `CN(C)C(=O)c1c(N)ccc(-c2cnc3c(c2Cl)[C@]2(CC[C@@H](O)C2)CN3)c1F` [Compound 38a]: 24.2 nM; for `CN(C)C(=O)c1c(N)ccc(-c2cnc3c(c2Cl)[C@]2(CC[C@H](O)C2)CN3)c1F` [Compound 38c, 6-Amino-3-((1R,3S)-4′-chloro-3-hydoxy-1′,2′-dihydrospiro[cyclopentane-1,3′-pyrrolo[2,3-b]pyridin]5′-yl)-2-fluoro-N,N-dimethylbenzamide]: 8.47 nM. For `CN(C)C(=O)c1c(N)ccc(-c2cnc3c(c2Cl)C2(CN3)CC2CO)c1F` (centres unmarked) [Compound 39, 6-Amino-3-(4′-chloro-2-(hydroxymethyl)-1′,2′-dihydrospiro[cyclopropane-1,3′-pyrrolo[2,3-b]pyridin]-5′-yl)-2-fluoro-N,N-dimethylbenzamide], the Ki was determined as 17.2 nM. Compared with the last compound, the Ki is about 2-fold higher. In turn, `CN(C)C(=O)c1c(N)ccc(-c2cnc3c(c2Cl)[C@@]2(CN3)C[C@H]2CO)c1F` [Compound 39a, 6-Amino-3-((1R,2R)-4′-chloro-2-(hydroxymethyl)-1′,2′-dihydrospiro[cyclopropane-1,3′-pyrrolo[2,3-b]pyridin]-5′-yl)-2-fluoro-N,N-dimethylbenzamide] displayed a Ki of 27.7 nM. Take `CN(C)C(=O)c1c(N)ccc(-c2cnc3c(c2Cl)[C@]2(CN3)C[C@@H]2CO)c1F` [Compound 39b, 6-Amino-3-((1S,2S)-4′-chloro-2-(hydroxymethyl)-1′,2′-dihydrospiro[cyclopropane-1,3′-pyrrolo[2,3-b]pyridin]-5′-yl)-2-fluoro-N,N-dimethylbenzamide]: the Ki was determined as 40.5 nM. `CN(C)C(=O)c1c(N)ccc(-c2cnc3c(c2Cl)C2(CN3)Cc3ccncc3C2)c1F` (centres unmarked) [Compound 40, 6-Amino-3-(4′-chloro-1′,2′,5,7-tetrahydrospiro[cyclopenta[c]pyridine-6,3′-pyrrolo[2,3-b]pyridin]-5′-yl)-2-fluoro-N,N-dimethylbenzamide] gave a Ki of 15.3 nM. In turn, `O=C1CNCCN1c1cccc(-c2cnc3c(c2)C2(CC2)CN3)c1` [Compound 42, 1-(3-(1′,2′-Dihydrospiro[cyclopropane-1,3′-pyrrolo[2,3-b]pyridin]-5′-yl)phenyl)piperazin-2-one] registered a Ki of 100 nM.

Regarding `OCc1cccnc1-c1cccc(-c2cnc3c(c2)C2(CC2)CN3)c1` [Compound 43, (2-(3-(1′,2′-Dihydrospiro[cyclopropane-1,3′-pyrrolo[2,3-b]pyridin]-5′-yl)phenyl)pyridin-3-yl)methanol], the Ki was found to be 81.5 nM. For `CN(CCO)C(=O)c1c(N)ccc(-c2cnc3c(c2Cl)C2(CCC2)CN3)c1F` [Compound 44, 6-Amino-3-(4′-chloro-1′,2′-dihydrospiro[cyclobutane-1,3′-pyrrolo[2,3-b]pyridin]-5′-yl)-2-fluoro-N-(2-hydroxyethyl)-N-methylbenzamide], the Ki came out at 4.4 nM.

Take `CN(CCO)C(=O)c1cccc(-c2cnc3c(c2Cl)C2(CC2)CN3)c1F` [Compound 45, 3-(4′-Chloro-1′,2′-dihydrospiro[cyclopropane-1,3′-pyrrolo[2,3-b]pyridin]-5′-yl)-2-fluoro-N-(2-hydroxyethyl)-N-methylbenzamide]: the affinity, expressed as Ki, was 43.7 nM. Consider `CCN(CCO)C(=O)c1cccc(-c2cnc3c(c2Cl)C2(CC2)CN3)c1F` [Compound 46, 3-(4′-Chloro-1′,2′-dihydrospiro[cyclopropane-1,3′-pyrrolo[2,3-b]pyridin]-5′-yl)-N-ethyl-2-fluoro-N-(2-hydroxyethyl)benzamide], for which the affinity, expressed as Ki, was 38.6 nM. This Ki and that of the compound before are within 1.5-fold of each other. As for `O=C(c1cccc(-c2cnc3c(c2Cl)C2(CC2)CN3)c1F)N(CCO)CCO` [Compound 47, 3-(4′-Chloro-1′,2′-dihydrospiro[cyclopropane-1,3′-pyrrolo[2,3-b]pyridin]-5′-yl)-2-fluoro-N,N-bis(2-hydroxyethyl)benzamide], the Ki was determined as 88.5 nM. This Ki is about 2.3-fold higher than that of the compound before.

Regarding `O=C(c1cccc(-c2cnc3c(c2Cl)C2(CC2)CN3)c1F)N1CCNCC1` [Compound 48, (3-(4′-Chloro-1′,2′-dihydrospiro[cyclopropane-1,3′-pyrrolo[2,3-b]pyridin]-5′-yl)-2-fluorophenyl)(piperazin-1-yl)methanone], the Ki turned out to be 151 nM.

In turn, `O=C(c1cccc(-c2cnc3c(c2Cl)C2(CC2)CN3)c1F)N1CC(O)C1` [Compound 49] showed a Ki of 55.3 nM. `CC(=O)NC1CN(C(=O)c2cccc(-c3cnc4c(c3Cl)C3(CC3)CN4)c2F)C1` [Compound 50, N-(1-(3-(4′-Chloro-1′,2′-dihydrospiro[cyclopropane-1,3′-pyrrolo[2,3-b]pyridin]-5′-yl)-2-fluorobenzoyl)azetidin-3-yl)acetamide] displayed a Ki of 139 nM.
